Where two headings read alike, the source gives them in different places. Starred links: 1 amine or outer side, 2 acyl side, 3 side chain; linkers in the order of their positions; H or OH if unused. Positions of bridges follow the written chain, without caps; N, C: chain ends. Non-standard residues stand in square brackets, D forms with d. Residues, ends and D or L forms follow the SMILES beside them. *: point of attachment. dBip = N[C@H](Cc1ccc(-c2ccccc2)cc1)C(=O)O; Oic = O=C(O)[C@@H]1C[C@@H]2CCCC[C@@H]2N1; Phe(4-Cl) = N[C@@H](Cc1ccc(Cl)cc1)C(=O)O; dPhe(4-Cl) = N[C@H](Cc1ccc(Cl)cc1)C(=O)O; Phe(4-I) = N[C@@H](Cc1ccc(I)cc1)C(=O)O; γGlu = O=C(O)[C@H](CCC(=O)[*:2])N[*:1]; NMeR = CN[C@@H](CCCNC(=N)N)C(=O)O; Tridecanoyl = CCCCCCCCCCCCC(=O)*; hArg = N=C(N)NCCCC[C@H](N)C(=O)O; β3hF = N[C@H](CC(=O)O)Cc1ccccc1; Cha = N[C@@H](CC1CCCCC1)C(=O)O; NMeL = CN[C@@H](CC(C)C)C(=O)O; Nle = CCCC[C@H](N)C(=O)O; AEEA = NCCOCCOCC(=O)O; Aib = CC(C)(N)C(=O)O; Mpa = O=C(O)CCS
Key:
[1] = system: Rat Peritoneal Mast Cells
[2] = In vitro stability in rat kidney homogenate; format: in vitro ADME
Procedure, shortened: (§1)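 High resolution LC-MS of the supernatant gave remaining peptide. Samples came from 37° C. incubations of 5 μM apelin peptide in rat plasma or liver or kidney homogenate over 4 hr, stopped with methanol plus internal standard.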

[3] = molecular target: T1, rat APJ receptor (Rattus norvegicus, UniProt Q9JHG3); assay: [35S] GTPγS assay, rat APJ receptor; format: biochemical
T1 construct: expressed in transfected cells
T1 sequence (Q9JHG3 1-377): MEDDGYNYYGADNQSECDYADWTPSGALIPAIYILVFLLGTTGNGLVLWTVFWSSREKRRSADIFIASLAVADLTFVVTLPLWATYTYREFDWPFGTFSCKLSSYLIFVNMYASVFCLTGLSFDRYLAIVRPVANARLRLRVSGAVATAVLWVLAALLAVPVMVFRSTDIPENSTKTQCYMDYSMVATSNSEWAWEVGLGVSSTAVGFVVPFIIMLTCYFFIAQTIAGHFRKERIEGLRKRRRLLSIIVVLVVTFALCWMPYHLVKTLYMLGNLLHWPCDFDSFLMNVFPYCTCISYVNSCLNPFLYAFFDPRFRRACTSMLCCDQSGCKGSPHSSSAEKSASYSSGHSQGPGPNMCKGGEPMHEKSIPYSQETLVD
Description: The membranes were incubated with modified peptides in the assay buffer. […] Bound [^35S] GTPγS was separated from free radiolabel by filtration. The filter bound radioactivity was determined by liquid scintillation counting.

[4] = system: Human Mast Cells; assay: Mast cell degranulation (histamine release), human mast cells; format: cell-based; conditions: human mast cells derived from CD34+ peripheral blood cells; 0.005 to 30 μM, 37° C., 30 min; less than 30% of total histamine content = negative
Description: Mast cell degranulation was measured for a number of the modified apelin polypeptides as follows in order to determine the potential immunogenic effect of the peptides. Mast cell degranulating peptide (MCDP) and compound 48/80 were used as positive controls. MCDP was obtained from Alomone Labs (Israel). Compound 48/80 was obtained from Sigma (Saint Louis, […].). Histamine Elisa kit was obtained from NEOGEN (Lexington, Ky.). Tyrode's buffer was obtained from Sigma (#T2397).
Mature human mast cells were derived from CD34+peripheral blood precursor cells after an 8-12 week differentiation/maturation process in vitro. […] Mast cell maturation was confirmed via expression of the mast cell markers c-kit and FcεRI via flow cytometry (>75% positive) and histamine release.
Mast cells (human or rat) were washed in Tyrode's buffer and seeded on 96-well plates (approx. 2000 mast cells/well). A 10 point dilution of test compounds were prepared in Tyrode's buffer and were incubated (0.005 to 30 μM) with mast cells at 37° C. for 30 min. […] A mast cell surfactant control is compared to a mast cell Tyrode's buffer control to ensure surfactants are not inducing histamine release in the absence of the lipidated molecule. Histamine release was quenched by placing the plates on ice for 5 min. Cells were centrifuged at 350×g at 4° C. for 5 min and the supernatant was collected. Released histamine was quantified by ELISA (Neogen Corporation) as per the kits' instruction. Briefly, the absorbance was measured at 650 nm in a microplate reader, following a direct competitive ELISA reaction with test samples compared against a standard curve. Total histamine content of the cells (0.1% Triton X-100) and spontaneous release were also measured to determine the percent of histamine release. Percent histamine release was calculated by the following formula: % histamine release=(ng/ml histamine release by test article−ng/ml spontaneous histamine release in Tyrode's buffer)/(ng/ml total histamine content of cells lysed in 0.1% Triton X-100−ng/ml spontaneous histamine release in Tyrode's buffer)×100.

[5] = In vitro stability in rat plasma; format: in vitro ADME
Procedure, shortened: as §1

[6] = In vitro stability in rat liver homogenate; format: in vitro ADME; conditions: tissue homogenate
Procedure, shortened: as §1

[7] = In vivo pharmacokinetics in rat; parameters: species or system Sprague-Dawley rats; conditions: rat, in vivo, sc, 0.5 mg/kg
Description: Evaluation of the in vivo pharmacokinetic profile of several pegylated and lipidated apelin polypeptides in rat was undertaken (FIGS. 9 and 10A-B). The apelin polypeptides were administered to Sprague-Dawley rats through subcutaneous (SC) administration and the pharmacokinetic profile for each polypeptide was subsequently evaluated. […] Blood samples collected over a 24 hr period were transferred into collection tubes containing potassium EDTA and stored on ice until processed. Plasma was obtained from blood by centrifugation. After transfer into a 96-well container, plasma samples were stored in a freezer maintained at approximately −80° C. Quantitative analysis of the apelin polypeptide in rat plasma samples was achieved using multiple reaction monitor (MRM) mode on a LC-MS/MS system.

[8] = liver homogenate; conditions: rat, 37° C., up to 4 hr

Compound: CC[C@H](C)[C@H](N)C(=O)N[C@@H](CCCCN)C(=O)N[C@H]1CSSC[C@@H]2NC(=O)[C@H]([C@@H](C)CC)NC(=O)[C@H](Cc3c[nH]cn3)NC(=O)[C@@H]3CCCN3C(=O)[C@H](CCCCN)NC(=O)[C@H]([C@@H](C)CC)NC(=O)[C@H](C(C)C)NC(=O)[C@H](Cc3c[nH]cn3)NC(=O)[C@H](CCCNC(=N)N)NC(=O)[C@H](CCCCN)NC(=O)[C@H](CSSC[C@@H](C(=O)NCC(=O)N[C@@H](CCCCN)C(=O)N[C@@H](CC(N)=O)C(N)=O)NC(=O)[C@H]([C@@H](C)CC)NC(=O)[C@H](CCCCN)NC(=O)[C@H](CCCNC(=N)N)NC2=O)NC(=O)[C@H](CC(N)=O)NC1=O [MCDP, reference compound] (H-IKCNCKRHVIKPHICRKICGKN-NH2; disulfide 3-15, 5-19 (inferred); N-terminus and C-terminus assumed)
- Cause Histamine Release? [1]: Yes
- EC50 [1]: 520 nM

Compound: CCCC[C@H](NC(=O)[C@@H]1CCCN1C(=O)CNC(=O)[C@H](CCCCN)NC(=O)[C@H](Cc1c[nH]cn1)NC(=O)[C@H](CO)NC(=O)[C@H](CC(C)C)NC(=O)[C@H](CCCNC(=N)N)N(C)C(=O)[C@@H]1CCCN1C(=O)[C@H](CCCNC(=N)N)NC(=O)[C@H](CCC(N)=O)NC(=O)COCCOCCNC(=O)COCCOCCNC(=O)CC[C@H](NC(=O)CCC)C(=O)O)C(=O)N1CCC[C@H]1C(=O)N[C@@H](Cc1ccc(Cl)cc1)C(=O)O [SEQ ID NO: 491]
- induction of histamine release from rat mast cells [1]: less mast cell degranulation activity

Compound: CSCC[C@H](NC(=O)[C@@H]1CCCN1C(=O)CNC(=O)[C@H](CCCCN)NC(=O)[C@H](Cc1cnc[nH]1)NC(=O)[C@H](CO)NC(=O)[C@H](CC(C)C)NC(=O)[C@H](CCCNC(=N)N)NC(=O)[C@@H]1CCCN1C(=O)[C@H](CCCNC(=N)N)NC(=O)[C@@H]1CCC(=O)N1)C(=O)N1CCC[C@H]1C(=O)N[C@@H](Cc1ccccc1)C(=O)O [compound 6]
- Stability at 4 hours (% Remaining) Kidney ([2]; rat kidney homogenate, 5 μM peptide, 37° C., 4 hr): <1.0 % Remaining
- induction of histamine release from rat mast cells [1]: inactive at the highest concentrations tested

Compound: CC(=O)N[C@H](CCCNC(=N)N)C(=O)N[C@@H](CCC(N)=O)C(=O)N[C@@H](CCCNC(=N)N)C(=O)N1CCC[C@H]1C(=O)N[C@@H](CCCCNC(=N)N)C(=O)N(C)[C@@H](CC(C)C)C(=O)N[C@@H](CO)C(=O)N[C@@H](Cc1c[nH]cn1)C(=O)N[C@@H](CCCCN)C(=O)NCC(=O)N1[C@H](C(=O)N[C@@H](Cc2ccc(I)cc2)C(=O)N2CCC[C@H]2C(=O)N[C@H](Cc2ccc(-c3ccccc3)cc2)C(=O)O)C[C@@H]2CCCC[C@@H]21 [compound 52] (Ac-[dR]QRP[hArg][NMeL]SHKG[Oic][Phe(4-I)]P[dBip]-OH)
- EC50 ([3]; read-out: EC50 Rat APJ Receptor): 1.14 nM
- EC50 [1]: 550 nM

Compound: CCCC[C@H](NC(=O)[C@@H]1C[C@@H]2CCCC[C@@H]2N1C(=O)CNC(=O)[C@H](CCCCN)NC(=O)[C@H](Cc1c[nH]cn1)NC(=O)[C@H](CO)NC(=O)[C@H](CC1CCCCC1)NC(=O)[C@H](CCCNC(=N)N)N(C)C(=O)[C@@H]1CCCN1C(=O)[C@H](CCCCNC(=N)N)NC(=O)[C@@H](CCC(N)=O)NC(C)=O)C(=O)N1CCC[C@H]1C(=O)N[C@H](Cc1ccc(Cl)cc1)C(=O)O [compound 55] (Ac-[dQ][hArg]P[NMeR][Cha]SHKG[Oic][Nle]P[dPhe(4-Cl)]-OH)
- EC50 [1]: 8170 nM

Compound: CCCC[C@H](NC(=O)[C@@H]1CCCN1C(=O)CNC(=O)[C@H](CCCCN)NC(=O)[C@H](Cc1c[nH]cn1)NC(=O)[C@H](CO)NC(=O)C(C)(CC(C)C)NC(=O)[C@H](CCCCNC(=N)N)NC(=O)C1(C)CCCN1C(=O)[C@H](CCCNC(=N)N)NC(=O)[C@H](CCC(N)=O)NC(C)=O)C(=O)N1CCC[C@H]1C(=O)N[C@@H](Cc1ccc(Cl)cc1)C(=O)O (stereo partly shown) [compound 69]
- Induce Histamine Release? Human Mast Cells [4]: No

Compound: CCCCCCCCCCCCC(=O)N[C@@H](CCC(=O)NCCOCCOCC(=O)NCCOCCOCC(=O)N[C@@H](CCC(N)=O)C(=O)N[C@@H](CCCNC(=N)N)C(=O)N1CCC[C@H]1C(=O)N(C)[C@@H](CCCNC(=N)N)C(=O)N[C@@H](CC(C)C)C(=O)N[C@@H](CO)C(=O)N[C@@H](Cc1c[nH]cn1)C(=O)N[C@@H](CCCCN)C(=O)NCC(=O)N1CCC[C@H]1C(=O)N[C@@H](CCCC)C(=O)N1CCC[C@H]1C(=O)N[C@@H](Cc1ccc(Cl)cc1)C(=O)O)C(=O)O [compound 287]
- Induce Histamine Release? Human Mast Cells [4]: Yes
- remaining at 4 h, 5 μM [5]: 18%
- remaining at 4 h, 5 μM [6]: < 1%

Compound: CCCCCCCCCCCCC(=O)N[C@@H](CCC(=O)NCCOCCOCC(=O)NCCOCCOCC(=O)N[C@@H](CCC(N)=O)C(=O)N[C@@H](CCCNC(=N)N)C(=O)N1CCC[C@H]1C(=O)N(C)[C@@H](CCCNC(=N)N)C(=O)N[C@@H](CC1CCCCC1)C(=O)N[C@@H](CO)C(=O)N[C@@H](Cc1c[nH]cn1)C(=O)N[C@@H](CCCCN)C(=O)NCC(=O)N1[C@H](C(=O)N[C@@H](CCCC)C(=O)N2CCC[C@H]2C(=O)N[C@H](CC(=O)O)Cc2ccccc2)C[C@@H]2CCCC[C@@H]21)C(=O)O [compound 379] ({Tridecanoyl-γGlu-AEEA-AEEA}-QRP[NMeR][Cha]SHKG[Oic][Nle]P[β3hF]-OH)
- EC50 ([3]; Table 16, read-out: EC50 Rat APJ Receptor): 8.37 nM
- AUC(0-inf) [7]: 0.052 µM·h
- half-life [7]: 2.27 h
- remaining at 4 h, 5 μM [5]: 92%
- remaining at 4 h, 5 μM [6]: 2%
- remaining at 4 h, 5 μM ([2]; rat, tissue homogenate): 1%

Compound: CCCC[C@H](NC(=O)[C@@H]1CCCN1C(=O)CNC(=O)[C@H](CCCCN)NC(=O)[C@H](Cc1c[nH]cn1)NC(=O)[C@H](CO)NC(=O)[C@H](CC(C)C)NC(=O)[C@H](CCCNC(=N)N)N(C)C(=O)[C@@H]1CCCN1C(=O)[C@H](CCCNC(=N)N)NC(=O)[C@H](CCC(N)=O)NC(=O)COCCOCCNC(=O)COCCOCCNC(=O)CC[C@H](NC(=O)CCC)C(=O)O)C(=O)N1CCC[C@H]1C(=O)N[C@@H](Cc1ccc(Cl)cc1)C(=O)O [compound 491]
- Induce Histamine Release? Human Mast Cells [4]: No
- remaining at 4 h, 5 μM [5]: < 1%
- remaining at 4 h, 5 μM [6]: < 1%

Compound: {Acetyl-NH} Q R P [NMeArg] [Cha] S H K G [Oic] [Nle] [Aib] [4-Cl—F] {COOH} (Ac-QRP[NMeR][Cha]SHKG[Oic][Nle][Aib][Phe(4-Cl)]-OH) [SEQ ID NO: 92]
- induction of histamine release from rat mast cells [1]: positive

Compound: {H2} [MerPr] (10K mPEG acetamide) Q [NMehArg] P [NMeArg] [aMeLeu] S H K G P [Nle] P [4-Cl-F] {COOH}
- not cleaved [8]: >90.0 % remaining at 4 hours

Compound: {H2} [MerPr] (10K mPEG acetamide) Q r P [hArg] [aMeLeu] S H K G P [Nle] P [4-Cl-F] {COOH}
- not cleaved [8]: >90.0 % remaining at 4 hours

Compound: {H2}[MerPr](10KmPEGacetamide)QRP[NMeArg][Cha]SHKG[Oic][Nle][Aib][4-Cl-F]{COOH} (10KmPEGacetamide-[Mpa]QRP[NMeR][Cha]SHKG[Oic][Nle][Aib][Phe(4-Cl)]-OH) [SEQ ID NO: 120]
- induction of histamine release from rat mast cells ([1]; rat mast cells): no longer induced histamine release

Source: patent publication US11807693B2 (priority 2014, dated 2023)
